1 compound from patent publication US11396513B2, “Compositions for activating pyruvate kinase” (FORMA Therapeutics, Inc., priority 2017, dated 2022) can be followed below.

For one test, the target named is PKR (wild type) (Homo sapiens, UniProt P30613). Description: Luminescence Assay (Kinase Glo Plus), PKR wild type. The test is classed as biochemical. How it is done:
(§1) The ability of compound 1 to activate PKR was determined using the following Luminescence Assay. The effect of phosphorylation of adenosine-5′-diphosphate (ADP) by PKR (wild type) is determined by the Kinase Glo Plus Assay (Promega) in the presence or absence of FBP [D-Fructose-1,6-diphosphate; BOC Sciences, CAS: 81028-91-3] as follows. Unless otherwise indicated, all reagents are purchased from Sigma-Aldrich. All reagents are prepared in buffer containing 50 mM Tris-HC1, 100 mM KC1, 5 mM MgC12, and 0.01% Triton X100, 0.03% BSA, and 1 mM DTT. Enzyme and PEP [Phospho(enol) pyruvic acid] are added at 2× to all wells of an assay-ready plate containing serial dilutions of test compounds or DMSO vehicle. Final enzyme concentrations for PKR(wt), PKR(R510Q), and PKR(G332S) are 0.8 nM, 0.8 nM, and 10 nM respectively. Final PEP concentration is 100 μM. The Enzyme/PEP mixture is incubated with compounds for 30 minutes at RT before the assay is initiated with the addition of 2×ADP [Adenosine-5′-diphosphate] and KinaseGloPlus. Final concentration of ADP is 100 μM. […] For assays containing FBP, that reagent is added at 30 μM upon reaction initiation. Reactions are allowed to progress for 45 minutes at RT until luminescence is recorded by the BMG PHERAstar FS Multilabel Reader. The compound is tested in triplicate at concentrations ranging from 42.5 μM to 2.2 nM in 0.83% DMSO. […]
Background: Kinase-Glo measures the ATP left after a reaction by luminescence.

The next test deals with PKR(G332S) (Homo sapiens, UniProt P30613, G332S). The test can be described thus: Luminescence Assay (Kinase Glo Plus), G332S PKR mutant. The settings on record: G332S PKR mutant 10 nM; PEP 100 μM; ADP 100 μM; four parameter fit; triplicate. The test is classed as biochemical. On the procedure: as §1
Chain of PKR(G332S) (P30613 whole entry G332S): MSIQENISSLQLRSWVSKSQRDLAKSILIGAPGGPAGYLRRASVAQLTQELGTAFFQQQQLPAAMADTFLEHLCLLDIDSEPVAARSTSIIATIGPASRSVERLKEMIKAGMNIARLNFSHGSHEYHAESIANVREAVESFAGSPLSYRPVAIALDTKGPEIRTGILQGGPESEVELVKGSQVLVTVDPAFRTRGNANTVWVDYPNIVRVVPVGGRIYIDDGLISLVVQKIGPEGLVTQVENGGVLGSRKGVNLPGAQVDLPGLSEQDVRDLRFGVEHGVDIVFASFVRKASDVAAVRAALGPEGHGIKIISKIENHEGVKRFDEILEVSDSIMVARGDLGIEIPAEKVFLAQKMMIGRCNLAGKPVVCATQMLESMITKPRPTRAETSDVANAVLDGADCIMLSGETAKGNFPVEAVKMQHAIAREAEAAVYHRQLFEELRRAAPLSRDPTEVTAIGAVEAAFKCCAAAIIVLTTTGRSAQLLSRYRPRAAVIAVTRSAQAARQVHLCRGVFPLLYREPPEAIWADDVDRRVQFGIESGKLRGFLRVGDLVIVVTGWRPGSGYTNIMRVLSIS

As usually defined, the AC50 is the concentration giving half of the maximal activity seen.

The structures appear in SMILES notation.

Chain of PKR (wild type) (P30613 whole entry): as the sequence (P30613 whole entry G332S) above, with S332G counted along it

`CC(C)(O)C(=O)N1CC2=C(C1)CN(S(=O)(=O)c1ccc3c(c1)NCCO3)C2` [compound 1, 1-(5-((3,4-Dihydro-2H-benzo[b][1,4]oxazin-6-yl)sulfonyl)-3,4,5,6-tetrahydropyrrolo[3,4-c]pyrrol-2(1H)-yl)-2-hydroxy-2-methylpropan-1-one]: the concentration at half-maximal activity (AC50) is under 1000 nM on PKR (wild type) (Luminescence Assay, PKR form not specified, definition of PKR Activator Compound); 100 to 1000 nM on PKR (wild type) (PKR wild type enzyme 0.8 nM, PEP 100 μM, ADP 100 μM, four parameter fit, triplicate); 100 to 1000 nM on PKR(G332S).
